Data: ChEMBL document CHEMBL6121066, “Structure-Activity Relationship Studies of DNA Methyltransferase 1 Monovalent Degraders” (J Med Chem, 2025)
Active and inactive are the calls of the source. No cut-off for these calls is given here.

Legend:
[1] = biological target: Histone-lysine N-methyltransferase EZH2 (Homo sapiens) (UniProt Q15910); experiment: Inhibition of human EZH2 using core histone and SAM as substrate at 1 uM by radioisotope-based MT HotSpot assay relative to control
HCT-116 [2] = experiment: Induction of molecular glue effect mediated DNMT1 degradation in human HCT-116 cells assessed as reduction in DNMT1 protein level at 100 nM preincubated with TAK-243 for 2 hrs followed by compound addition and measured after 24 hrs by Western blot analysis; format: cell-based
HCT-116 [3] = experiment: Induction of molecular glue effect mediated DNMT1 degradation in human HCT-116 cells assessed as reduction in DNMT1 protein level at 500 nM measured after 2 hrs by Western blot analysis relative to control; format: cell-based; design: scale not given: the % may be the effect or the level left
[4] = Induction of molecular glue effect mediated DNMT1 degradation in human NCI-H1299 cells assessed as reduction in DNMT1 protein level incubated for 24 hrs by Western blot analysis; format: cell-based; conditions: NCI-H1299, 24 h
HCT-116 [5] = experiment: Induction of molecular glue effect mediated DNMT1 degradation in human HCT-116 cells assessed as reduction in DNMT1 protein level at 100 nM preincubated with MLN4924 for 2 hrs followed by compound addition and measured after 24 hrs by Western blot analysis; format: cell-based
MDA-MB-468 [6] = experiment: Induction of molecular glue effect mediated DNMT1 degradation in human MDA-MB-468 cells assessed as reduction in DNMT1 protein level at 100 nM preincubated with MLN4924 for 2 hrs followed by compound addition and measured after 24 hrs by Western blot analysis; format: cell-based
HCT-116 [7] = experiment: Induction of molecular glue effect mediated DNMT1 degradation in human HCT-116 cells transfected with WWP1 siRNA assessed as reduction in DNMT1 protein level at 100 nM measured after 24 hrs by Western blot analysis; format: cell-based
HCT-116 [8] = experiment: Induction of molecular glue effect mediated DNMT1 degradation in human HCT-116 cells assessed as reduction in DNMT1 protein level at 500 nM by Western blot analysis; format: cell-based; conditions: time 2-24 hrs
[9] = biological target: Histone-lysine N-methyltransferase 2A (Homo sapiens) (UniProt Q03164); experiment: Inhibition of human MLL1 using nucleosomes and SAM as substrate at 1 uM by radioisotope-based MT HotSpot assay relative to control
Chain of Histone-lysine N-methyltransferase 2A (Homo sapiens) (Q03164 1-2718 limits assumed): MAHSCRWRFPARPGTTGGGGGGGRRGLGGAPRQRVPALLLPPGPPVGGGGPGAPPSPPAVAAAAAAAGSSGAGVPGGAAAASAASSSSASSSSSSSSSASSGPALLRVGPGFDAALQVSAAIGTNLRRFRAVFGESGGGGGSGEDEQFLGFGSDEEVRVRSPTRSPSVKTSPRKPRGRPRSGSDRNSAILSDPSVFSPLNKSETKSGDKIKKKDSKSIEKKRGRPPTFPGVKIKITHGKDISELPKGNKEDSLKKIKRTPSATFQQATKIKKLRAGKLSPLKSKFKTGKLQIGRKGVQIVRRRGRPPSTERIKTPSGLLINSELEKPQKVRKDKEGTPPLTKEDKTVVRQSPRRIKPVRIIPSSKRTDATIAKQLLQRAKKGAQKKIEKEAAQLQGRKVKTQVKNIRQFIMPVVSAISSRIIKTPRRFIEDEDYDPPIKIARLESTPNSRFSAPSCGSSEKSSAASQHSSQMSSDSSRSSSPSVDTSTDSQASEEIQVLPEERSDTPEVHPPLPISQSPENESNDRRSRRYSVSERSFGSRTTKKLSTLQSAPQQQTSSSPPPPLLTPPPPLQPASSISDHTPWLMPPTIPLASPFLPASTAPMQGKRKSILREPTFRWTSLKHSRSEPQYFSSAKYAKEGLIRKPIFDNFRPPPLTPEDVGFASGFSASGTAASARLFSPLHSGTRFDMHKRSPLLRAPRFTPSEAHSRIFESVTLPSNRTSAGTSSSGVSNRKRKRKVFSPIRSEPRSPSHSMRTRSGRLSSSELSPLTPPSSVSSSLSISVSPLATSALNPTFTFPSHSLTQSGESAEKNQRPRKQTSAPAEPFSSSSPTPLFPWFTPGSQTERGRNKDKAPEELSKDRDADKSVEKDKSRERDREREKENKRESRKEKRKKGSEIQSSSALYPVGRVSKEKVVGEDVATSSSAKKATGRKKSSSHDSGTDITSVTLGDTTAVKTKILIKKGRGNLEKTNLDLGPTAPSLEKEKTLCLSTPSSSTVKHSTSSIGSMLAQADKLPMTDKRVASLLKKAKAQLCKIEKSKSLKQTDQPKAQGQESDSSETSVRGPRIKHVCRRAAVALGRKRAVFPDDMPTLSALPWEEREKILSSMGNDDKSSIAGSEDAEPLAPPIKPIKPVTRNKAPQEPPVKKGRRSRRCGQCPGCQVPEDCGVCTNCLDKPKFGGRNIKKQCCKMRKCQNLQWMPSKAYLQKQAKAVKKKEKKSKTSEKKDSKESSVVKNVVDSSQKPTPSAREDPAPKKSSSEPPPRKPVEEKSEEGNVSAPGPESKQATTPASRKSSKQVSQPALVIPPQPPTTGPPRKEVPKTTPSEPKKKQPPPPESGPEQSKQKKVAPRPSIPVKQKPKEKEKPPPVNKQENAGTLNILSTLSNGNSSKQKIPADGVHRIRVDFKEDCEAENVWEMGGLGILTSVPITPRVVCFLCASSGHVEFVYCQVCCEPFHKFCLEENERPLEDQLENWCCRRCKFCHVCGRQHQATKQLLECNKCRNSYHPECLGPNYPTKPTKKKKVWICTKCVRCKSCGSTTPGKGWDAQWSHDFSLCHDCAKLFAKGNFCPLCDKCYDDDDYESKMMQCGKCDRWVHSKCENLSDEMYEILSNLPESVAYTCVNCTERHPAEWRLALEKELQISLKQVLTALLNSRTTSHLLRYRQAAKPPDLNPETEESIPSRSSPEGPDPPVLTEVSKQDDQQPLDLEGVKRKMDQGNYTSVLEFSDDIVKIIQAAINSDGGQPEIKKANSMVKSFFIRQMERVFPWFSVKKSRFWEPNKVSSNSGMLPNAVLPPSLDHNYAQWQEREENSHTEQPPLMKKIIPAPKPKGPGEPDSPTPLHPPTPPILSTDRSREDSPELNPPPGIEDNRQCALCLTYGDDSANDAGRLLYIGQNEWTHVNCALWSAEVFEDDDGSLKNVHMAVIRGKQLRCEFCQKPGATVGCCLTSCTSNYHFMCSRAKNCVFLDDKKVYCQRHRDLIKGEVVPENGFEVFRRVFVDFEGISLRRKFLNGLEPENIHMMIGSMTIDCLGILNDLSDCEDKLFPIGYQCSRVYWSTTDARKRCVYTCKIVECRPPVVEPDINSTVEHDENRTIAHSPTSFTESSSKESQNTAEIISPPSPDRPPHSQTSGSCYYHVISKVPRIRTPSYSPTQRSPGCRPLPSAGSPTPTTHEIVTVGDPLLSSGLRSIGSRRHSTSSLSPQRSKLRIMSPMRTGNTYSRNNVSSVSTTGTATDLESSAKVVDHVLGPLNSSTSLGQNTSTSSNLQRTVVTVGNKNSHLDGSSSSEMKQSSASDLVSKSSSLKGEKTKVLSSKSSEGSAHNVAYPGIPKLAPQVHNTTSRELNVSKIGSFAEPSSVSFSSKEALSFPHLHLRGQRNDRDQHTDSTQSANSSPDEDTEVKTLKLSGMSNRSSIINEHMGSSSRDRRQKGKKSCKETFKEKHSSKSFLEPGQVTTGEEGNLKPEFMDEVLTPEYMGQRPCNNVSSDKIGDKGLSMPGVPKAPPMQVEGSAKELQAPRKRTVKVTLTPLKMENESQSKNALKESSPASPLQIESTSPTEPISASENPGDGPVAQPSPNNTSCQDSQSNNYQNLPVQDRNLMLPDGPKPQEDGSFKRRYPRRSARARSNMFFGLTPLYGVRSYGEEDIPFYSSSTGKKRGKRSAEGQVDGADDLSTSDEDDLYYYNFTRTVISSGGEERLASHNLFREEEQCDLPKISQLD
Chain of Histone-lysine N-methyltransferase 2A (Homo sapiens) (Q03164 2719-3969 limits assumed): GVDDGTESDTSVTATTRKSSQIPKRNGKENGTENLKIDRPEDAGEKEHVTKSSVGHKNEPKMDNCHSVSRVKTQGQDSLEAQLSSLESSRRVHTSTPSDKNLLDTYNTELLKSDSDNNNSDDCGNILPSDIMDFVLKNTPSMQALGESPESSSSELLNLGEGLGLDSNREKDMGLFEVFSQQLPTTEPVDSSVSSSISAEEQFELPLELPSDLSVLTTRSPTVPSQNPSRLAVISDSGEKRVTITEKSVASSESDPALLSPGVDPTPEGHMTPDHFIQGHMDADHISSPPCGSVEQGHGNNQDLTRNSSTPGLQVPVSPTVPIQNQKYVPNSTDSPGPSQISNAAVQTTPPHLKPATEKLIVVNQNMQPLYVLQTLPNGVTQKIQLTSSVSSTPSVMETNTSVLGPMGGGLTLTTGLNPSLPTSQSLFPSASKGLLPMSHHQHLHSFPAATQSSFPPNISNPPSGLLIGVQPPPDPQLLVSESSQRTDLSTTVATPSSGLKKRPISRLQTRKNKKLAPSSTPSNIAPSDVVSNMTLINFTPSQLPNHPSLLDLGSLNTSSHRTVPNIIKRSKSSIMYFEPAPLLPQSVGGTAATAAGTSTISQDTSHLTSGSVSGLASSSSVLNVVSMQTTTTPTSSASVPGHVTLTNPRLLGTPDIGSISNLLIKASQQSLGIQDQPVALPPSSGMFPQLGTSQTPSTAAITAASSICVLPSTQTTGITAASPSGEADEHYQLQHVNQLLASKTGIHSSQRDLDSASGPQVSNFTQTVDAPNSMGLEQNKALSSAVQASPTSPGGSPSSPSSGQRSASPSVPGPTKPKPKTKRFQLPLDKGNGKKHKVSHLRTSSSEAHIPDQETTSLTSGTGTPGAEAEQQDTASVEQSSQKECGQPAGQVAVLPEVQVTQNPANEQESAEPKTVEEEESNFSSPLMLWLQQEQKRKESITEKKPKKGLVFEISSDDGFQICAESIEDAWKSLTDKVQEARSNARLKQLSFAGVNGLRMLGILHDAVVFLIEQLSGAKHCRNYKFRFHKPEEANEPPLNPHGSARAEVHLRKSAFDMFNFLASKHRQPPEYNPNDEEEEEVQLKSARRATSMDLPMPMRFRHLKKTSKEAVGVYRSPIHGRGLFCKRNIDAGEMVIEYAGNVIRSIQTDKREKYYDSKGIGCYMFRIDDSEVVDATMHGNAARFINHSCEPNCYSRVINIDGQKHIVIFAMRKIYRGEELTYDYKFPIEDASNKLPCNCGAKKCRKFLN

[10] = (§1) Induction of molecular glue effect mediated DNMT1 degradation in human HCT-116 cells assessed as reduction in DNMT1 protein level incubated for 24 hrs by Western blot analysis; format: cell-based; conditions: HCT-116, 24 h
HCT-116 [11] = experiment: as §1; format: cell-based
NCI-H1299 [12] = experiment: Induction of molecular glue effect mediated DNMT1 degradation in human NCI-H1299 cells assessed as reduction in DNMT1 protein level at 100 nM preincubated with MG132 for 2 hrs followed by compound addition and measured after 24 hrs by Western blot analysis; format: cell-based
MDA-MB-468 [13] = experiment: Effect on DNMT1 mRNA level in human MDA-MB-468 cells at 500 nM incubated for 24 hrs by RT-qPCR analysis; format: functional, cell-based
HCT-116 [14] = experiment: Induction of molecular glue effect mediated DNMT1 degradation in human HCT-116 cells transfected with Smurf2 siRNA assessed as reduction in DNMT1 protein level at 100 nM measured after 24 hrs by Western blot analysis; format: cell-based
NCI-H1299 [15] = experiment: Induction of molecular glue effect mediated DNMT1 degradation in human NCI-H1299 cells assessed as reduction in DNMT1 protein level at 100 nM preincubated with MLN4924 for 2 hrs followed by compound addition and measured after 24 hrs by Western blot analysis; format: cell-based
[16] = biological target: T1, Histone-arginine methyltransferase CARM1 (Homo sapiens) (UniProt Q86X55); experiment: Inhibition of human PRMT4 using histone H3 and SAM as substrate at 1 uM by radioisotope-based MT HotSpot assay relative to control
T1 sequence (whole entry): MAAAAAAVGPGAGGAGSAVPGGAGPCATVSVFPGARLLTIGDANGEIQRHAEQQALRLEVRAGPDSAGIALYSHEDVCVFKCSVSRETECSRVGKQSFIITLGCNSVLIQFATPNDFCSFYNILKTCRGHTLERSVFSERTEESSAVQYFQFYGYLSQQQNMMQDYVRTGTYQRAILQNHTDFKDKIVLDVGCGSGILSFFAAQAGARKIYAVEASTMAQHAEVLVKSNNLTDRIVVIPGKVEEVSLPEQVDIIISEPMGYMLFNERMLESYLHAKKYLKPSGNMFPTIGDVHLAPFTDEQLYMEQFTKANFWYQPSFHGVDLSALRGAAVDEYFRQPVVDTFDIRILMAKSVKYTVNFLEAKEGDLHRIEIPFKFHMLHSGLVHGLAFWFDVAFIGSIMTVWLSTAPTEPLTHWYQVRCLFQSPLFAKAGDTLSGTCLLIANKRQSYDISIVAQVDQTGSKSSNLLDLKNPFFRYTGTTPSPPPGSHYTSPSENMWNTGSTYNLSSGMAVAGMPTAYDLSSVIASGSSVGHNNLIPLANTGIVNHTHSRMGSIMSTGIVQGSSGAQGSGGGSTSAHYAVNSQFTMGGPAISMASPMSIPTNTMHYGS

MDA-MB-468 [17] = experiment: Induction of molecular glue effect mediated DNMT1 degradation in human MDA-MB-468 cells assessed as reduction in DNMT1 protein level at 100 nM preincubated with MG132 for 2 hrs followed by compound addition and measured after 24 hrs by Western blot analysis; format: cell-based
HCT-116 [18] = experiment: Induction of molecular glue effect mediated DNMT1 degradation in human HCT-116 cells assessed as reduction in DNMT1 protein level at 500 nM measured after 24 hrs by Western blot analysis relative to control; format: cell-based; design: scale not given: the % may be the effect or the level left
HCT-116 [19] = experiment: Induction of molecular glue effect mediated DNMT1 degradation in human HCT-116 cells assessed as reduction in DNMT1 protein level at 100 nM preincubated with TRAF6 inhibitor C25-140 for 2 hrs followed by compound addition and measured after 24 hrs by Western blot analysis; format: cell-based
HCT-116 [20] = experiment: Induction of molecular glue effect mediated DNMT1 degradation in human HCT-116 cells transfected with UHRF1 siRNA assessed as reduction in DNMT1 protein level at 100 nM measured after 24 hrs by Western blot analysis; format: cell-based

Chain of Histone-lysine N-methyltransferase EZH2 (Homo sapiens) (Q15910 whole entry, looked up): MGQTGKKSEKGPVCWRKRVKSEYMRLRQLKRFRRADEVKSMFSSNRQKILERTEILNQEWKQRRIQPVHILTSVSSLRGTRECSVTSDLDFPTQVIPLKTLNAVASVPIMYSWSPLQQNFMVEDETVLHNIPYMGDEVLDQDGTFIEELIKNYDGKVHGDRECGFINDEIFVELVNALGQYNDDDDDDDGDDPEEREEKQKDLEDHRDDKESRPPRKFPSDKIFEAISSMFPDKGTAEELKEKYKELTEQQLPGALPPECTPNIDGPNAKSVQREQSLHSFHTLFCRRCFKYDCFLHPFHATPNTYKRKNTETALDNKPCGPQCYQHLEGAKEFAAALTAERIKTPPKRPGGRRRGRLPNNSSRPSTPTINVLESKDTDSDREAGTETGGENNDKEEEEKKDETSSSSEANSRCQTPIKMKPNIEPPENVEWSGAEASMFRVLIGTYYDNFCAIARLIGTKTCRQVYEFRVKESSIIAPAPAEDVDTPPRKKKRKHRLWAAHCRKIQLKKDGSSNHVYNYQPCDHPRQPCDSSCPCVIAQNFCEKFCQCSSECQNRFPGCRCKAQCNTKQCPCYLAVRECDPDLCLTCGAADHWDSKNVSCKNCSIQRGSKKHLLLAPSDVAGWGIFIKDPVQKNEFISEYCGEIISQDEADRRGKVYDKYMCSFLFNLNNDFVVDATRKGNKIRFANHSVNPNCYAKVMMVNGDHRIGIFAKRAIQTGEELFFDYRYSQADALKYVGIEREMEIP

## CCc1c(C#N)c(SC(C(N)=O)c2ccccc2)nc(N(C)CC(=O)NC)c1C#N (stereo not given)
[1]
  inhibition: < 20%
HCT-116 [2]
  Activity: inactive
HCT-116 [3]
  Activity: 50%
[4]
  DC50: 86 nM
HCT-116 [5]
  Activity: Active
MDA-MB-468 [6]
  Activity: Active
HCT-116 [7]
  Activity: Active
HCT-116 [8]
  Activity: Time-dependent-effect
[9]
  inhibition: < 20%
[10]
  DC50: 35 nM
HCT-116 [11]
  Activity: Dose-dependent-effect
NCI-H1299 [12]
  Activity: inactive
MDA-MB-468 [13]
  Activity: inactive
HCT-116 [14]
  Activity: Active
NCI-H1299 [15]
  Activity: Active
[16]
  inhibition: < 20%
MDA-MB-468 [17]
  Activity: inactive
HCT-116 [18]
  Activity: 100%
HCT-116 [19]
  Activity: Active
HCT-116 [20]
  Activity: Not active; Partial Rescue Of Degradation Observed
